Molecular target: T1, PenA1 β-lactamase (class A carbapenemase) (Burkholderia multivorans, UniProt A0A0H3KN52)
T1 construct: gene ampC
Test: steady-state β-lactamase inhibition kinetics (Ki app, k2/K, koff)
Type: biochemical
Details: read-out: Taniborbactam

T1 sequence (A0A0H3KN52 entry or part of it): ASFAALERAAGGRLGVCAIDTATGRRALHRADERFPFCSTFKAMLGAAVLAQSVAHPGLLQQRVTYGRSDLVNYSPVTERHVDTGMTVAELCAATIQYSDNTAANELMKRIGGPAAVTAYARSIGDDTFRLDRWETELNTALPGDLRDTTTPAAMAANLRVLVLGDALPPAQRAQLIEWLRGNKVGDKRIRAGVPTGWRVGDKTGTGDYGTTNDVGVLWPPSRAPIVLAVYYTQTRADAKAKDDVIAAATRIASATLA

`NCCN[C@H]1CC[C@H](CC(=O)N[C@H]2Cc3cccc(C(=O)O)c3OB2O)CC1` [taniborbactam] was tested. Which Ki did it give?
The Ki was 400 ± 40 nM.

— article PMC10648927, “Examining the activity of cefepime-taniborbactam against Burkholderia cepacia complex and Burkholderia gladioli isolated from cystic fibrosis patients in the United States” (Antimicrobial Agents and Chemotherapy, 2023)
